Source: US20030162777A1, “Novel N-acylated heterocycles” (Recordati S.A., priority 2001, published 2003)
pKi: −log10 of the molar value.

What follows are compounds tested against T1, human 5HT1A-serotonergic receptor (Homo sapiens, UniProt P08908) (assay: Radioligand binding to recombinant 5-HT1A receptors). Conditions: [3H]8-OH-DPAT 1 nM, membranes of HeLa cells with human 5-HT1A receptor; Ki from IC50 by Cheng & Prusoff; read-out: Binding affinity for 5HT1A receptors, Ki.
T1 construct: expressed in transfected cells; host or cells: HeLa (human cell line), stably transfected; cell membranes used
T1 sequence (P08908 1-422): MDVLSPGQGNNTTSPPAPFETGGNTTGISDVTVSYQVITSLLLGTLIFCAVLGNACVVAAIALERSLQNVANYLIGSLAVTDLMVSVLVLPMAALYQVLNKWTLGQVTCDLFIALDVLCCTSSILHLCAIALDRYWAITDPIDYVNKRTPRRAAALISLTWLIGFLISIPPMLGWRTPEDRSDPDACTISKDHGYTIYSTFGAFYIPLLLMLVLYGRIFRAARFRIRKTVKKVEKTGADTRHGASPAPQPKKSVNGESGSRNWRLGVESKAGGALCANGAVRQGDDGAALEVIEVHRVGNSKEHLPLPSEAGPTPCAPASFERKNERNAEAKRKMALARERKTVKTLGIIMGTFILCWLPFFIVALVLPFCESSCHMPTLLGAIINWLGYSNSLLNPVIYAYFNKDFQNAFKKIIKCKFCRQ
Summary of the method: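 Displacement of 1 nM [3H]8-OH-DPAT (30 min, 30 °C, Tris-HCl pH 7.4 with MgCl2 and pargyline) from recombinant human 5-HT1A in transfected HeLa membranes, stopped by filtration. Specific binding defined against 10 μM 5-HT; IC50 by nonlinear fitting, then Ki by Cheng–Prusoff.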

| pKi | Structure (SMILES) |
| --- | --- |
| 8.00 | Cc1ccccc1C1CCN(CC2CCc3ccccc3N2C(=O)C2CCCCC2)CC1 (stereo not drawn) [Example 72A56, 1-(1-Cyclohexanecarbonyl-1,2,3,4-tetrahydroquinolin-2-ylmethyl)-4-(2-methylphenyl)piperidine] |
| 7.81 | O=C(C1CCCCC1)N1c2ccccc2CCC1CN1CCN(c2cccc(Cl)n2)CC1 (stereo not drawn) [Example 72A65, 1-(1-Cyclohexanecarbonyl-1,2,3,4-tetrahydroquinolin-2-ylmethyl)-4-(6-chloropyridin-2-yl)piperazine] |
| 7.99 | O=C(C1CCCCC1)N1c2ccccc2CCC1CN1CCN(c2c(Cl)cncc2Cl)CC1 (stereo not drawn) [Example 72A66, 1-(1-Cyclohexanecarbonyl-1,2,3,4-tetrahydroquinolin-2-ylmethyl)-4-(3,5-dichloropyridin-4-yl)piperazine] |
| 8.41 | O=C(C1CCCCC1)N1c2ccccc2CCC1CN1CCC(c2ccccc2Cl)CC1 (stereo not drawn) [Example 72A69, 4-(2-Chlorophenyl)-1-(1-cyclohexanecarbonyl-1,2,3,4-tetrahydroquinolin-2-ylmethyl)piperidine] |
| 7.59 | O=C(C1CCCCC1)N1c2ccccc2CCC1CN1CCC(c2ccccc2C(F)(F)F)CC1 (stereo not drawn) [Example 72A81, 1-(1-Cyclohexanecarbonyl-1,2,3,4-tetrahydroquinolin-2-ylmethyl)-4-(2-trifluoromethylphenyl)piperidine] |
| 7.46 | O=C(C1CCCCC1)N1c2ccccc2CCC1CN1CCN(c2cc(C(F)(F)F)nc3ccccc23)CC1 (stereo not drawn) [Example 72A89, 1-(1-Cyclohexanecarbonyl-1,2,3,4-tetrahydroquinolin-2-ylmethyl)-4-(2-trifluoromethylquinolin-4-yl)piperazine] |
| 8.11 | O=C(C1CCCCC1)N1c2ccccc2CCC1CN1CCN(c2ccccn2)CC1 (stereo not drawn) [Example 72A93, 1-(1-Cyclohexanecarbonyl-1,2,3,4-tetrahydroquinolin-2-ylmethyl)-4-(2-pyridyl)piperazine] |
| 8.00 | O=C(C1CCCCC1)N1c2ccccc2CCC1CN1CCN(c2ccnc3ccccc23)CC1 (stereo not drawn) [Example 72A94, 1-(1-Cyclohexanecarbonyl-1,2,3,4-tetrahydroquinolin-2-ylmethyl)-4-(4-quinolyl)piperazine] |
| 8.00 | O=C(CC1CC1)N1c2ccccc2CCC1CN1CCN(c2nccc3ccccc23)CC1 (stereo not drawn) [Example 75A2, 1-[1-(2-Cyclopropylacetyl)-1,2,3,4-tetrahydroquinolin-2-ylmethyl]-4-(1-isoquinolinyl)piperazine] |
| 7.85 | O=C(c1ccc[nH]1)N1c2ccccc2CCC1CN1CCN(c2nccc3ccccc23)CC1 (stereo not drawn) [Example 75A3, 1-(1-Isoquinolinyl)-4-[1-(2-pyrrolylcarbonyl)-1,2,3,4-tetrahydroquinolin-2-ylmethyl]piperazine] |
| 7.84 | O=C(c1ccco1)N1c2ccccc2CCC1CN1CCN(c2nccc3ccccc23)CC1 (stereo not drawn) [Example 75A4, 1-[1-(2-Furancarbonyl)-1,2,3,4-tetrahydroquinolin-2-ylmethyl]-4-(1-isoquinolinyl)piperazine] |
| 8.59 | COc1ccc(C(=O)N2c3ccccc3CCC2CN2CCN(c3nccc4ccccc34)CC2)cc1 (stereo not drawn) [Example 75A5, 1-(1-Isoquinolinyl)-4-[1-(4-methoxybenzoyl)-1,2,3,4-tetrahydroquinolin-2-ylmethyl]piperazine] |
| 8.37 | N#Cc1ccc(C(=O)N2c3ccccc3CCC2CN2CCN(c3nccc4ccccc34)CC2)cc1 (stereo not drawn) [Example 75A6, 1-[1-(4-Cyanobenzoyl)-1,2,3,4-tetrahydroquinolin-2-ylmethyl]-4-(1-isoquinolinyl)piperazine] |
| 8.27 | CC(=O)N1CCC(C(=O)N2c3ccccc3CCC2CN2CCN(c3nccc4ccccc34)CC2)CC1 (stereo not drawn) [Example 75A7, 1-[1-(1-Acetyl-4-piperidinecarbonyl)-1,2,3,4-tetrahydroquinolin-2-ylmethyl]-4-(1-isoquinolinyl)piperazine] |
| 7.58 | O=C(C1CCC1)N1c2ccccc2CCC1CN1CCN(c2nccc3ccccc23)CC1 (stereo not drawn) [Example 75A10, 1-(1-Cyclobutanecarbonyl-1,2,3,4-tetrahydroquinolin-2-ylmethyl)-4-(1-isoquinolinyl)piperazine] |
| 7.77 | O=C(CCCOc1ccccc1)N1c2ccccc2CCC1CN1CCN(c2nccc3ccccc23)CC1 (stereo not drawn) [Example 75A11, 1-(1-Isoquinolinyl)-4-[1-(4-phenoxybutanoyl)-1,2,3,4-tetrahydroquinolin-2-ylmethyl]piperazine] |

Continued, compound first:

| Structure (SMILES) | pKi |
| --- | --- |
| O=C(C1CCCCC1)N1c2ccccc2CCC1CN1CCC(c2cccc(Cl)c2Cl)CC1 (stereo not drawn) [Example 72A51, 1-(1-Cyclohexanecarbonyl-1,2,3,4-tetrahydroquinolin-2-ylmethyl)-4-(2,3-dichlorophenyl)piperidine] | 7.82 |
| O=C(C1CCCCC1)N1c2ccccc2CCC1CN1CCC(c2c(F)cccc2Cl)CC1 (stereo not drawn) [Example 72A53, 4-(2-Chloro-6-fluorophenyl)-1-(1-cyclohexanecarbonyl-1,2,3,4-tetrahydroquinolin-2-ylmethyl)piperidine] | 8.21 |
| Cc1c(F)cccc1C1CCN(CC2CCc3ccccc3N2C(=O)C2CCCCC2)CC1 (stereo not drawn) [Example 72A57, 1-(1-Cyclohexanecarbonyl-1,2,3,4-tetrahydroquinolin-2-ylmethyl)-4-(3-fluoro-2-methylphenyl)piperidine] | 8.19 |
| O=C(C1CCCCC1)N1c2ccccc2CCC1CN1CCC(c2cccc(Cl)c2)CC1 (stereo not drawn) [Example 72A68, 4-(3-Chlorophenyl)-1-(1-cyclohexanecarbonyl-1,2,3,4-tetrahydroquinolin-2-ylmethyl)piperidine] | 7.41 |
| CN(CCOc1ccccc1Cl)CC1CCc2ccccc2N1C(=O)C1CCCCC1 (stereo not drawn) [Example 72A84, N-(1-Cyclohexanecarbonyl-1,2,3,4-tetrahydroquinolin-2-ylmethyl)-2-(2-chlorophenoxy)ethylmethylamine] | 7.80 |
| CN(CCOc1ccccc1OCC(F)(F)F)CC1CCc2ccccc2N1C(=O)C1CCCCC1 (stereo not drawn) [Example 72A85, N-(1-Cyclohexanecarbonyl-1,2,3,4-tetrahydroquinolin-2-ylmethyl)-2-[2-(2,2,2-trifluoroethoxy)phenoxy]ethylmethylamine] | 8.44 |
| CN(CCOc1cccc2[nH]ccc12)CC1CCc2ccccc2N1C(=O)C1CCCCC1 (stereo not drawn) [Example 72A86, N-(1-Cyclohexanecarbonyl-1,2,3,4-tetrahydroquinolin-2-ylmethyl)-2-[4-(1H)-indolyloxy]ethylmethylamine] | 8.37 |
| CN(CCOc1cccc2cccnc12)CC1CCc2ccccc2N1C(=O)C1CCCCC1 (stereo not drawn) [Example 72A87, N-(1-Cyclohexanecarbonyl-1,2,3,4-tetrahydroquinolin-2-ylmethyl)-2-(8-quinolyloxy)ethylmethylamine] | 8.41 |
| COc1cc(F)ccc1N1CCN(CC2CCc3cc(C)ccc3N2C(=O)CC2CCCCC2)CC1 (stereo not drawn) [Example 73A6, 1-(1-Cyclohexylacetyl-1,2,3,4-tetrahydroquinolin-6-methyl-2-ylmethyl)-4-(4-fluoro-2-methoxyphenyl)piperazine] | 7.74 |
| COc1cc(F)ccc1N1CCN(CC2CCc3cc(C)ccc3N2C(=O)C2CCCCCC2)CC1 (stereo not drawn) [Example 73A13, 1-(1-Cycloheptanecarbonyl-1,2,3,4-tetrahydroquinolin-6-methyl-2-ylmethyl)-4-(4-fluoro-2-methoxyphenyl)piperazine] | 8.09 |
| COc1cc(F)ccc1N1CCN(CC2CCc3ccccc3N2C(=O)CC(C)(C)C)CC1 (stereo not drawn) [Example 74A1, 1-(3,3-Dimethylbutanoyl-1,2,3,4-tetrahydroquinolin-2-ylmethyl)-4-(4-fluoro-2-methoxyhenyl)piperazine] | 8.70 |
| COc1ccc(C(=O)N2c3ccccc3CCC2CN2CCN(c3ccc(F)cc3OC)CC2)cc1 (stereo not drawn) [Example 74A5, 1-(4-Fluoro-2-methoxyphenyl)-4-[1-(4-methoxybenzoyl)-1,2,3,4-tetrahydroquinolin-2-ylmethy]piperazine] | 8.70 |
| COc1cc(F)ccc1N1CCN(CC2CCc3ccccc3N2C(=O)Cc2cccs2)CC1 (stereo not drawn) [Example 74A8, 1-(4-Fluoro-2-methoxyphenyl)-4-[1-(2-thienylacetyl)-1,2,3,4-tetrahydroquinolin-2-ylmethyl]piperazine] | 8.23 |
| COc1cc(F)ccc1N1CCN(CC2CCc3ccccc3N2C(=O)Cc2ccsc2)CC1 (stereo not drawn) [Example 74A9, 1-(4-Fluoro-2-methoxyphenyl)-4-[1-(3-thienylacetyl)-1,2,3,4-tetrahydroquinolin-2-ylmethyl]piperazine] | 7.42 |
| COc1cc(F)ccc1N1CCN(CC2CCc3ccccc3N2C(=O)CC(C)C)CC1 (stereo not drawn) [Example 74A, 1-(4-Fluoro-2-methoxyphenyl)-4-[1-(3-methylbutanoyl)-1,2,3,4-tetrahydroquinolin-2-ylmethyl]piperazine] | 7.75 |
| O=C(Cc1cccs1)N1c2ccccc2CCC1CN1CCN(c2nccc3ccccc23)CC1 (stereo not drawn) [Example 75A8, 1-(1-Isoquinolinyl)-4-[1-(2-thienyacetyl)-1,2,3,4-tetrahydroquinolin-2-ylmethyl]piperazine] | 7.77 |
| O=C(Cc1ccsc1)N1c2ccccc2CCC1CN1CCN(c2nccc3ccccc23)CC1 (stereo not drawn) [Example 75A9, 1-(1-Isoquinolinyl)-4-[1-(3-thienyacetyl)-1,2,3,4-tetrahydroquinolin-2-ylmethyl]piperazine] | 7.79 |
